# Measured values from patent US10889825B2, “Compositions and methods thereof for down-regulation of genes following oral delivery of an RNAi molecule bioencapsulated within plant cells” (THE TRUSTEES OF THE UNIVERSITY OF PENNSYLVANIA, priority 2015, dated 2021).
# Tested on: Helicoverpa armigera
# Test: gossypol tolerance test, larvae on artificial diet supplemented with gossypol
# Format: in vivo
# Conditions: third-instar larvae
# Procedure: Cotton bollworm (Helicoverpa armigera) eggs were purchased from Benzon research laboratory. See the world wide web at benzonresearch.com/insectlist.htm. They were hatched at 25° C. and all the larvae were fed with the artificial diet (Southland Products Incorporated on the world wide web at tecinfo.com/˜southland/. All dishes were kept at 25° C. on a 14-h-day/10-h-night cycle. For the gossypol tolerance experiments, third instars larvae were transferred to the artificial diet supplemented with gossypol (0-4 mg) for 4 d and the increase in weight was recorded.
# Gossypol and related sesquiterpene biosynthesized in cotton are toxic to many organisms. However, most Helicoverpa insects resist gossypol because the P450 monooxygenases in the midgut of these insects permit them to tolerate the gossypol. Therefore, in order to suppress P450 gene, two step insect bioassay was conducted. In the first step, third-instar larvae of Helicoverpa armigera were fed on P450: RNAi expressed leaves for four days. Then, all these larvae were transferred to the following diet or leaves: artificial diet with 3 mg/g gossypol or without gossypol; cotton leaves with glands/glandless and wild-type tobacco leaves. Addition of gossypol in the artificial diet or in leaves affects the growth and development of the larvae (FIG. 3). […]
smiles,measurement,setting,value
Cc1cc2c(C(C)C)c(O)c(O)c(C=O)c2c(O)c1-c1c(C)cc2c(C(C)C)c(O)c(O)c(C=O)c2c1O [gossypol],net weight increase of larvae,higher concentrations (3-4 mg/g) of gossypol diet,15.1 to 55.4 mg
same,weight increases of larvae,low concentration gossypol diet (1-2 mg/g),163 to 190 mg
